US9981023B2, “Compositions and methods for inducing immune tolerance” (The Scripps Research Institute, priority 2010, dated 2018)

Target: T1, CD22 (Mus musculus, UniProt P35329)
T1 sequence (P35329 22-868): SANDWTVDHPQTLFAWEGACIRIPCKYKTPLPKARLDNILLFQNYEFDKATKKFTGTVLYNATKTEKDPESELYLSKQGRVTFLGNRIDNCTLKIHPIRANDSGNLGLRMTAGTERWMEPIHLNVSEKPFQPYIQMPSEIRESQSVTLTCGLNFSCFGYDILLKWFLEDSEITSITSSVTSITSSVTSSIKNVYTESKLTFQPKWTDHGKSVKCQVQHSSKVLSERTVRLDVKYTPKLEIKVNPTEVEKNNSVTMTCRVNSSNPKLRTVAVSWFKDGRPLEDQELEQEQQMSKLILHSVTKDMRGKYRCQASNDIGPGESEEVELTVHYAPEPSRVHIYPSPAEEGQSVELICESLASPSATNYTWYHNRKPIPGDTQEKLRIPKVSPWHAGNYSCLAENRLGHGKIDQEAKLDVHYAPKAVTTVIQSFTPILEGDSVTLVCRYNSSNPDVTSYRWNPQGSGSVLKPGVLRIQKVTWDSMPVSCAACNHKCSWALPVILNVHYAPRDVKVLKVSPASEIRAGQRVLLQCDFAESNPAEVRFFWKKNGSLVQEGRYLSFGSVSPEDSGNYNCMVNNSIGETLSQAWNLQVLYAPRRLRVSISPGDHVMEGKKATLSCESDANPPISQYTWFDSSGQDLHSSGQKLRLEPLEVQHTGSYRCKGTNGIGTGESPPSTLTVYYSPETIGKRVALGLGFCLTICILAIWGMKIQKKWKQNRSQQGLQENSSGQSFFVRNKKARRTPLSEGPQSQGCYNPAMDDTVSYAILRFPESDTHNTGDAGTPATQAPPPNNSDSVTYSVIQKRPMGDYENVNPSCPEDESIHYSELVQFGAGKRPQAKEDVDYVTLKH
Assay: Affinity of glycan ligand for CD22
Assay type: binding
Conditions: natural ligand of CD22 relative to ^BPANeuGc

affinity lower than the ^BPANeuGc ligand: approximately 200 fold
Structure (SMILES): CC(=O)NC1C(O)OC(CO)C(OC2OC(COC3(C(=O)O)CC(O)C(NC(=O)CO)C(C(O)C(O)CO)O3)C(O)C(O)C2O)C1O (stereo not shown) [NeuGcα2-6Galβ1-4GlcNAc]
